# Source: patent publication US12447135B2 (University of South Florida, priority 2021, dated 2025)
# What was measured:
# Format in all cases: cell-based, human
# FFAR2 signaling = assay: Western blot of phospho-ERK1/2 in SK-N-SH cells (FFAR2 signal activation); conditions: 10 μM, 30 min
# Protocol: To determine the FFAR2 signal activating property of selected compounds, SK-N-SH cells were treated with 10 μM of shortlisted compounds for 30 min at 37° C. and harvested for total protein extraction. […] After sonication, cell extracts were centrifuged at 8,000×g for 10 min at 4° C., and the supernatant was separated in a fresh tube. The total protein concentration of the supernatant was measured using a BCA protein assay kit. An equal amount of total protein (45 μg) from each sample was dissolved in loading buffer and loaded in 4% stacking gel and 10% separating SDS-PAGE gel and resolved at 100 V. Proteins were transferred on a 0.22 μm PVDF membrane and blots were developed with anti-ERK1/2, anti-phosphoERK1/2, ubiquitin (P4D1), and Aβ (6E10) primary antibodies followed by their secondary antibodies and bands were visualized using the Pierce™ Fast Western Blot Kit, ECL Substrate acquired using Syngene Pxi. Band densities were also quantified using NIH ImageJ software. β-actin was used as an internal control.
# proteasome = assay: Proteasome activity assay in SK-N-SH cells
# Protocol: The CL2006 strain, SK-N-SH cells, and brain tissues were sonicated in a lysis buffer (150 mM NaCl, 50 mM HEPES, 2 mM DTT, 20 mM NaF, 5 mM EDTA, 2.5 mM sodium pyrophosphate, 1 mM sodium orthovanadate, and 1 mM α-glycerophosphoric acid) and then centrifuged at 15,000 g at 4° C. for 15 min. Total protein was assayed using BCA kit and 20 μg protein was mixed with 140 μM suc-leu-leu-val-tyr-7-amino-4-methylcou-marin (AMC) in a proteasome activity assay buffer (150 mM NaCl, 50 mM HEPES [pH 7.4], 5 mM ATP, and 5 mM EDTA), and then the fluorescence (excitation 380 nm and emission 460 nm) was measured every 10 min over 3 h using a microplate reader. The assay was performed with and without the proteasome inhibitor MG132 (10 μM).
# SK-N-SH cells [1] = assay: Aβ-induced neurotoxicity, MTT viability assay
# Protocol: To determine the impact of FFAR2 inhibition on Aβ-induced neuronal cell toxicity, the MTT viability assay was performed (Ronicke et al., 2008). SK-N-SH cells (1×10^3 cells per well) were plated in a 96-well plate containing DMEM medium supplemented with 10% FBS and 1% antibiotics and grown at 37° C. for 24 h. Then, media was removed, and cells were washed with PBS before being replenished with DMEM media containing 1% FBS and 10 μM FFAR2 inhibitor (CATPB, Tocris) and incubated at 37° C. for 2 h. Then, cells were treated with Aβ 25-32 peptide (25 μM, Sigma) and incubated for 4 h. Afterward, the media was replaced with 100 μl of fresh media, and 10 μl of MTT reagent (5 mg/ml in phosphate buffer [pH 7.2]) was added and mixed in each well before an additional 4 h incubation. Then, DMSO (50 μl) was added in each well and mixed thoroughly to dissolve formazan crystals. The absorbance was measured at 570 nm.
# SK-N-SH cells [2] = assay: Lysosome activity in SK-N-SH cells; conditions: 10 μM, vs controls
# Protocol: Bafilomycin was used as an inhibitor of cellular autophagy/lysosomal activity. The lysosomal activity was assayed using the Enz@ lysozyme assay kit (E-22013, Molecular Probes) and the fluorescence was measured in a fluorescence microplate reader using excitation and emission wavelengths of 494 nm and 518 nm, respectively (Biotek Instruments, VT, USA).
smiles,measurement,setting,value
CC12CCC(C1)C(C)(C)C2O (stereo not shown) [Fenchol],descending order of phospho-ERK1/2 levels,FFAR2 signaling,Fenchol>Octopamine>Carvamenthenol>Camphene>Pentanone>Synephrine>Leucinamide>Carene>α-Terpineol>Breneol>L-Fenchone>D-Fenchone>Norpseudoephedrine HCl
same,levels of phospho-ERK1/2 proteins,FFAR2 signaling; vs rest of selected compounds,highest in Fenchol and comparable to acetate
same,proteasomal activity,proteasome,significantly increased
same,proteasome activity in cells also treated with Aβ,proteasome; Fenchol plus Aβ,higher
same,protection in cell viability with FFAR2 inhibitor,"SK-N-SH cells [1]; Fenchol together with FFAR2 inhibitor, Aβ",no significant protection
same,Aβ-induced neuronal cell death,SK-N-SH cells [1]; vs DMSO controls,significantly reduced
same,lysosomal activity,SK-N-SH cells [2],significantly increased
